Measurements as given in patent US20160355530A1, “HEPATITIS C INHIBITORS AND USES THEREOF” (AbbVie Inc., priority 2010, published 2016).
Where two headings read alike, the source gives them in different places.

Tests used:
[1] = target: T1, HCV NS5B polymerase 1a-H77 (Hepatitis C virus genotype 1a, UniProt P27958); assay: biochemical; design: species or system HCV genotype 1a; settings: enzyme, strain 1a H77; read-out: HCV Polymerase Strain 1a H77 IC50
T1 construct: six-histidine tag; made in house; host or cells: E. coli
Outline: (§1)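 E. coli-expressed NS5B (residues 1-570, His-tagged) transcribed a 2.1 kb HCV 1b negative-strand 3′-end RNA template (5 nM) with 20 μM CTP, 20 μM ATP and 0.284 μM [3H]UTP for 3 h at 30° C. Spermine-precipitated RNA was filter-captured and counted by scintillation; IC50 from nonlinear regression.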

[2] = target: T2, HCV NS5B polymerase 1a-H77-C316Y (Hepatitis C virus genotype 1a, UniProt P27958, C2736Y); assay: biochemical; design: species or system HCV genotype 1a
T2 construct: six-histidine tag; made in house; host or cells: E. coli
Outline: as §1

[3] = test system: HCV NS5B polymerase 1a-H77-C316Y; assay: biochemical; design: species or system HCV genotype 1a; settings: ratio of enzyme IC50s, 1a H77-C316Y / 1a H77
Outline: as §1

[4] = target: T3, HCV NS5B polymerase 1b BK strain (Hepatitis C virus genotype 1b, UniProt P26663); assay: HCV NS5B polymerase enzymatic inhibition assay, strain 1b BK; format: biochemical; settings: enzyme, strain 1b BK; read-out: HCV Polymerase Strain 1b BK IC50
T3 construct: six-histidine tag; made in house; host or cells: E. coli
Outline: as §1

[5] = test system: HCV 1a-H77 subgenomic replicon; assay: microbe, parasite or virus in culture; format: cell-based, HCV genotype 1a; settings: Hepatitis C virus, stable replicon
[6] = test system: HCV 1b-BB7 subgenomic replicon; assay: microbe, parasite or virus in culture; format: cell-based, HCV genotype 1b; settings: Hepatitis C virus, stable replicon
[7] = test system: chimeric replicon with 2a-J6CF-derived NS5B; assay: microbe, parasite or virus in culture; format: cell-based, HCV genotype 2a; settings: Hepatitis C virus, read-out: 2a chimera 5% FBS EC50
[8] = test system: chimeric replicon with genotype 2b NS5B; assay: microbe, parasite or virus in culture; format: cell-based, HCV genotype 2b; settings: Hepatitis C virus, read-out: 2b chimera 5% FBS EC50
[9] = test system: chimeric replicon with genotype 3a NS5B; assay: microbe, parasite or virus in culture; format: cell-based, HCV genotype 3a; settings: Hepatitis C virus, read-out: 3a chimera 5% FBS EC50
[10] = test system: chimeric replicon with genotype 4a NS5B; assay: microbe, parasite or virus in culture; format: cell-based, HCV genotype 4a; settings: Hepatitis C virus, read-out: 4a chimera 5% FBS EC50
[11] = 5% FBS, absence of human plasma, read-out: Stable Replicon 1a H77 5% FBS EC50
[12] = strain 1a H77, 5% FBS + 40% human plasma, read-out: 1a H77 5% FBS + 40% Human Plasma EC50
[13] = strain 1a H77, 5% FBS, no human plasma, read-out: 1a H77 5% FBS EC50
[14] = strain 1a H77, 5% FBS, read-out: 1a H77 5% FBS EC50
[15] = strain 1b BB7, 5% FBS + 40% human plasma, read-out: 1b BB7 5% FBS + 40% Human Plasma EC50
[16] = strain 1b BB7, 5% FBS, no human plasma, read-out: 1b BB7 5% FBS EC50
[17] = strain 1b BB7, 5% FBS, read-out: 1b BB7 5% FBS EC50

T1 sequence (P27958 2421-2990): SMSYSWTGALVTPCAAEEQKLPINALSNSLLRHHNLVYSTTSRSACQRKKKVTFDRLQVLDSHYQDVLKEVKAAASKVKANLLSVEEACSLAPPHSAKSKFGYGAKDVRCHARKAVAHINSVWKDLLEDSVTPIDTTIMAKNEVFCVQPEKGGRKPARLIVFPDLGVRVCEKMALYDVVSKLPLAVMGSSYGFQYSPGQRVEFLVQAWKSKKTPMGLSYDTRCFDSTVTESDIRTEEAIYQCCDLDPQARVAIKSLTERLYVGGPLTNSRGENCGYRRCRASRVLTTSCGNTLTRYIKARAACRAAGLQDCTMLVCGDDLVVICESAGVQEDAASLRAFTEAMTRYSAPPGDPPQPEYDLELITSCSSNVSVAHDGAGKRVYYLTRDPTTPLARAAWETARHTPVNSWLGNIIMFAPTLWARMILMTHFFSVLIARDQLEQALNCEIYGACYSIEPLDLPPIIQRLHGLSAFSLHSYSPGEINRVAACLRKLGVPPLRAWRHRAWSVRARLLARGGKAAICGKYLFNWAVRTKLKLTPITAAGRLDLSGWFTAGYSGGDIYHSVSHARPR
T2 sequence (P27958 2421-2990 C2736Y): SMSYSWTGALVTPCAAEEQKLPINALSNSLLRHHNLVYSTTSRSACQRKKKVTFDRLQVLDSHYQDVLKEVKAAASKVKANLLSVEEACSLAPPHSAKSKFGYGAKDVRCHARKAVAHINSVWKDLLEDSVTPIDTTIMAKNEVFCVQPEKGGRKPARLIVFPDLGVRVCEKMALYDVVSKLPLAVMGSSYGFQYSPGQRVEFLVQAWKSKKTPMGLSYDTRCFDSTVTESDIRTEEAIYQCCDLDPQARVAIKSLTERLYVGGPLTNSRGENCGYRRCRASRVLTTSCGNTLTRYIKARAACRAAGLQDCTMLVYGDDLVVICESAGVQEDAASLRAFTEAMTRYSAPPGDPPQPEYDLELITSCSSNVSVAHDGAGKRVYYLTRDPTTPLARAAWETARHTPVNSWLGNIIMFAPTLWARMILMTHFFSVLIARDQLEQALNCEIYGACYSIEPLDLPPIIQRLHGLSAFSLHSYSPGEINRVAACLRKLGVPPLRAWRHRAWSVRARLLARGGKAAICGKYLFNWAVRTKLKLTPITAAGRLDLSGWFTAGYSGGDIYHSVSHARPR
T3 sequence (P26663 2420-2989): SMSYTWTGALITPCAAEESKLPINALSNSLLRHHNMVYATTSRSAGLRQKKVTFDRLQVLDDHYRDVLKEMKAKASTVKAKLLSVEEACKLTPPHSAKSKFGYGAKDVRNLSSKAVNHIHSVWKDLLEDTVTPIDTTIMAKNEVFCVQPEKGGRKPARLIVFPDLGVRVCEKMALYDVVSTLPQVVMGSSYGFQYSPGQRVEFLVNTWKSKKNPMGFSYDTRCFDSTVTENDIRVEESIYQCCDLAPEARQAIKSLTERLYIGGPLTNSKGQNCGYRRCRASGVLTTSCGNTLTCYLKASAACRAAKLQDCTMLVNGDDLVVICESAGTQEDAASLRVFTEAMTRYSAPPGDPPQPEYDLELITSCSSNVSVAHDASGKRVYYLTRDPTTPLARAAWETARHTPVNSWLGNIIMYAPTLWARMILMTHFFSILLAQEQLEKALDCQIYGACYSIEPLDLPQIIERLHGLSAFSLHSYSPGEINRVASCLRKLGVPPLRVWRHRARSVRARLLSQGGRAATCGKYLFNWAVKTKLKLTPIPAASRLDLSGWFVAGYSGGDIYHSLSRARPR

Row | SMILES | IC50 [1] | IC50 [2] | C316Y/1a Fold Resistance [3] | IC50 [4] | EC50 [5, 11] | EC50 [5, 12] | EC50 [5, 13] | EC50 [5, 14] | EC50 [6, 15] | EC50 [6, 16] | EC50 [6, 17] | EC50 [7] | EC50 [8] | EC50 [9] | EC50 [10]
1 | CS(=O)(=O)N(CCC/C(N)=N/O)c1cc2oc(-c3ccc(F)cc3)c(-c3ncc[nH]3)c2cc1C1CC1 [Example 176, (1Z)-4-{[5-cyclopropyl-2-(4-fluorophenyl)-3-(1H-imidazol-2-yl)-1-benzofuran-6-yl](methylsulfonyl)amino}-N′-hydroxybutanimidamide] | 5 nM | 134 nM | 27 fold | 33 nM | 36.5 nM | 133 nM | 36.5 nM | 36.5 nM | 80 nM | 20 nM | 20 nM | 146 nM | 155 nM | 12 nM | 159 nM
2 | CCN(CC)CCN(c1cc2oc(-c3ccc(F)cc3)c(C3=NOCCN3)c2cc1C1CC1)S(C)(=O)=O [Example 129, N-[5-cyclopropyl-3-(5,6-dihydro-4H-1,2,4-oxadiazin-3-yl)-2-(4-fluorophenyl)-1-benzofuran-6-yl]-N-[2-(diethylamino)ethyl]methanesulfonamide] | 24 nM | 632 nM | 26 fold | 466 nM | 80.9 nM | 300 nM | 80.9 nM | 80.9 nM | 163 nM | 38 nM | 38 nM | 625 nM | 625 nM | 149 nM | > 1000 nM
3 | CC(C)CCN(c1cc2oc(-c3ccc(F)cc3)c(C3=NOCC(=O)N3)c2cc1C1CC1)S(C)(=O)=O [Example 162, N-[5-cyclopropyl-2-(4-fluorophenyl)-3-(5-oxo-5,6-dihydro-4H-1,2,4-oxadiazin-3-yl)-1-benzofuran-6-yl]-N-(3-methylbutyl)methanesulfonamide] | 35.7 nM | 1200 nM | 34 fold | 711 nM | 248 nM | 10000 nM | 248 nM | 248 nM | 9710 nM | 327 nM | 327 nM | 1000 nM | 1000 nM | 1000 nM | > 1000 nM
4 | CS(=O)(=O)N(Cc1cnc(-c2ccc3[nH]ccc3c2)s1)c1ccc2c(-c3ncc[nH]3)c(-c3ccccc3)oc2c1 [Example 23, N-[3-(1H-imidazol-2-yl)-2-phenyl-1-benzofuran-6-yl]-N-{[2-(1H-indol-5-yl)-1,3-thiazol-5-yl]methyl}methanesulfonamide] | 3.9 nM | 27 nM | 7 fold | 10 nM | 230 nM | 10000 nM | 230 nM | 230 nM | 9240 nM | 26.4 nM | 26.4 nM | 41.6 nM | 281 nM | 17.3 nM | 313 nM
5 | CS(=O)(=O)N(CCC(F)(F)F)c1cc2oc(-c3ccc(F)cc3)c(C3=NOCCN3)c2cc1C1CC1 [Example 118, N-[5-cyclopropyl-3-(5,6-dihydro-4H-1,2,4-oxadiazin-3-yl)-2-(4-fluorophenyl)-1-benzofuran-6-yl]-N-(3,3,3-trifluoropropyl)methanesulfonamide] | 5.9 nM | 114 nM | 19 fold | 49 nM | 19.8 nM | 165 nM | 19.8 nM | 19.8 nM | 253 nM | 26 nM | 26 nM | 230 nM | 477 nM | 47 nM | 449 nM
